Values joined by “and” are separate entries in the source; they are usually repeats but may differ in a detail not shown here. Equal values may be shown once. Inconclusive results and toxic doses are left out.
Test system: BDF1 mice, P288 methotrexate-resistant leukemia, survival T/C
Test: NCI In Vivo Anticancer Drug Screen. Data for tumor model P288 Lymphocytic Leukemia resistant to methotrexate; NSC 740 (intraperitoneal) in B6D2F1 (BDF1) mice
Details: endpoint: median survival time, higher = longer survival
Experimental: The antitumor activity of compounds was measured in mice bearing transplantable tumors. Survival or tumor size were measured and the results are expressed as the measurement made in the treated group (T) divided by the measurement made in the vehicle treated control group (C). The tumor model used in this assay is P288 Lymphocytic Leukemia resistant to methotrexate; NSC 740 (intraperitoneal) in B6D2F1 (BDF1) mice

[1] = dose: 3.13 mg/kg/injection, schedule: Q01DX010 (ip), vehicle: saline
[2] = dose: 6.25 mg/kg/injection, schedule: Q01DX010 (ip), vehicle: saline
[3] = dose: 50.0 mg/kg/injection, schedule: Q01DX010 (ip), vehicle: saline
[4] = dose: 62.5 mg/kg/injection, schedule: Q01DX010 (ip), vehicle: saline
[5] = dose: 500.0 mg/kg/injection, schedule: Q01DX010 (ip), vehicle: saline
[6] = dose: 12.5 mg/kg/injection, schedule: Q01DX010 (ip), vehicle: saline
[7] = dose: 25.0 mg/kg/injection, schedule: Q01DX010 (ip), vehicle: saline
[8] = dose: 100.0 mg/kg/injection, schedule: Q01DX010 (ip), vehicle: saline
[9] = dose: 5.0 mg/kg/injection, schedule: Q01DX010 (ip), vehicle: saline
[10] = dose: 10.0 mg/kg/injection, schedule: Q01DX010 (ip), vehicle: saline
[11] = dose: 20.0 mg/kg/injection, schedule: Q01DX010 (ip), vehicle: saline
[12] = dose: 0.5 mg/kg/injection, schedule: Q01DX010 (ip), vehicle: saline
[13] = dose: 12.0 mg/kg/injection, schedule: Q01DX010 (ip), vehicle: saline
[14] = dose: 8.0 mg/kg/injection, schedule: Q01DX010 (ip), vehicle: saline
[15] = dose: 0.25 mg/kg/injection, schedule: Q01DX010 (ip), vehicle: saline
[16] = dose: 200.0 mg/kg/injection, schedule: Q01DX010 (ip), vehicle: saline
[17] = dose: 2.0 mg/kg/injection, schedule: Q01DX010 (ip), vehicle: saline
[18] = dose: 4.0 mg/kg/injection, schedule: Q01DX010 (ip), vehicle: saline

Compound: CSc1ncnc2nc[nH]c12
- T/C [1]: 91 % of control and 100 % of control
- T/C [2]: 91 % of control and 96 % of control
- T/C [3]: 90 % of control

Compound: Nc1nc2n[nH]nc2c(=O)[nH]1
- T/C (dose: 25.0 mg/kg/injection, schedule: Q01DX010 (ip), vehicle: alkali diluted with saline): 110 % of control
- T/C (dose: 50.0 mg/kg/injection, schedule: Q01DX010 (ip), vehicle: alkali diluted with saline): 112 % of control

Compound: CC/C(=C(/CC)c1ccc(O)cc1)c1ccc(O)cc1
- T/C (dose: 12.5 mg/kg/injection, schedule: Q01DX010 (sc), vehicle: steriod suspending solution): 100 % of control and 110 % of control
- T/C (dose: 25.0 mg/kg/injection, schedule: Q01DX010 (sc), vehicle: steriod suspending solution): 105 % of control
- T/C (dose: 50.0 mg/kg/injection, schedule: Q01DX010 (sc), vehicle: steriod suspending solution): 100 % of control and 105 % of control
- T/C (dose: 100.0 mg/kg/injection, schedule: Q01DX010 (sc), vehicle: steriod suspending solution): 90 % of control and 100 % of control

Compound: O=c1cn[nH]c(=O)[nH]1
- T/C [4]: 90 % of control and 110 % of control
- T/C (dose: 125.0 mg/kg/injection, schedule: Q01DX010 (ip), vehicle: saline): 105 % of control and 110 % of control
- T/C (dose: 250.0 mg/kg/injection, schedule: Q01DX010 (ip), vehicle: saline): 105 % of control and 120 % of control
- T/C [5]: 110 % of control and 120 % of control

Compound: CN(N=O)C(=O)NC(C=O)C(O)C(O)C(O)CO (stereo not given)
- T/C [6]: 100 % of control
- T/C [7]: 115 % of control
- T/C [8]: 105 % of control

Compound: Cn1cnc([N+](=O)[O-])c1Sc1nc(N)nc2nc[nH]c12
- T/C (dose: 2.5 mg/kg/injection, schedule: Q01DX010 (ip), vehicle: saline): 109 % of control
- T/C [9]: 90 % of control
- T/C [10]: 109 % of control
- T/C [11]: 109 % of control

Compound: NC(Cc1c[nH]c2ccc(N(CCCl)CCCl)cc12)C(=O)O (stereo not given)
- T/C [12]: 104 % of control

Compound: CN(C)c1ccc(/C=C\c2ccnc3ccccc23)cc1
- T/C (dose: 1.5 mg/kg/injection, schedule: Q01DX010 (ip), vehicle: saline): 100 % of control
- T/C (dose: 3.0 mg/kg/injection, schedule: Q01DX010 (ip), vehicle: saline): 100 % of control
- T/C (dose: 6.0 mg/kg/injection, schedule: Q01DX010 (ip), vehicle: saline): 100 % of control
- T/C [13]: 105 % of control

Compound: Clc1ccc(C(c2ccccc2Cl)C(Cl)Cl)cc1 (stereo not given)
- T/C (dose: 62.5 mg/kg/injection, schedule: Q01DX010 (sc), vehicle: steriod suspending solution): 109 % of control
- T/C (dose: 125.0 mg/kg/injection, schedule: Q01DX010 (sc), vehicle: steriod suspending solution): 100 % of control
- T/C (dose: 250.0 mg/kg/injection, schedule: Q01DX010 (sc), vehicle: steriod suspending solution): 109 % of control
- T/C (dose: 500.0 mg/kg/injection, schedule: Q01DX010 (sc), vehicle: steriod suspending solution): 100 % of control

Compound: NC(Cc1ccc(N(CCCl)CCCl)cc1)C(=O)O (stereo not given)
- T/C (dose: 1.0 mg/kg/injection, schedule: Q01DX010 (ip), vehicle: other): 160 % of control
- T/C (dose: 2.0 mg/kg/injection, schedule: Q01DX010 (ip), vehicle: other): 165 % of control
- T/C (dose: 4.0 mg/kg/injection, schedule: Q01DX010 (ip), vehicle: other): 215 % of control
- T/C [9]: 160 % of control
- T/C [10]: 186 % of control
- T/C [11]: 105 % of control

Compound: C[C@H]1C(=O)O[C@@H]2CCN3CC=C(COC(=O)[C@](C)(O)[C@@]1(C)O)[C@H]23
- T/C [1]: 100 % of control and 103 % of control
- T/C [2]: 91 % of control and 111 % of control
- T/C [6]: 91 % of control
- T/C [7]: 91 % of control and 96 % of control

Compound: OCC1OC(n2cnc3c(=S)nc[nH]c32)C(O)C1O (stereo not given)
- T/C [11]: 100 % of control and 105 % of control
- T/C (dose: 40.0 mg/kg/injection, schedule: Q01DX010 (ip), vehicle: saline): 95 % of control and 105 % of control
- T/C (dose: 80.0 mg/kg/injection, schedule: Q01DX010 (ip), vehicle: saline): 100 % of control and 110 % of control
- T/C (dose: 160.0 mg/kg/injection, schedule: Q01DX010 (ip), vehicle: saline): 100 % of control and 105 % of control

Compound: N=C(N)c1ccc(Nc2ccc(C(=N)N)cc2)cc1
- T/C [13]: 90 % of control

Compound: c1ccc(CCSc2ncnc3nc[nH]c23)cc1
- T/C (dose: 15.6 mg/kg/injection, schedule: Q01DX010 (ip), vehicle: saline): 86 % of control
- T/C (dose: 31.3 mg/kg/injection, schedule: Q01DX010 (ip), vehicle: saline): 86 % of control
- T/C [4]: 100 % of control
- T/C [5]: 87 % of control

Compound: C[n+]1c2ccccc2nc2c(N)cc(N)cc21
- T/C [14]: 115 % of control

Compound: CS(=O)(=O)OCCCCOS(C)(=O)=O
- T/C [2]: 87 % of control
- T/C [6]: 106 % of control
- T/C [7]: 93 % of control
- T/C [3]: 87 % of control

Compound: CO[C@H](C(=O)[C@@H](O)[C@@H](C)O)[C@@H]1Cc2cc3cc(OC4CC(OC5CC(O)C(O)C(C)O5)C(O)C(C)O4)c(C)c(O)c3c(O)c2C(=O)[C@H]1OC1CC(OC2CC(OC3CC(C)(O)C(O)C(C)O3)C(O)C(C)O2)C(O)C(C)O1 (stereo not given in full)
- T/C [15]: 95 % of control
- T/C [12]: 95 % of control
- T/C (dose: 1.0 mg/kg/injection, schedule: Q01DX010 (ip), vehicle: saline): 104 % of control

Compound: CS(=O)(=O)OCCN(CCOS(C)(=O)=O)c1ccc(N=O)cc1
- T/C [12]: 120 % of control

Compound: CN(C)/N=N/c1nc[nH]c1C(N)=O
- T/C [7]: 100 % of control
- T/C [3]: 90 % of control
- T/C [8]: 105 % of control and 109 % of control
- T/C [16]: 90 % of control and 100 % of control

Compound: Nc1nc(=S)c2[nH]cnc2[nH]1
- T/C (dose: 1.25 mg/kg/injection, schedule: Q01DX010 (ip), vehicle: other): 88 % of control and 118 % of control
- T/C (dose: 2.5 mg/kg/injection, schedule: Q01DX010 (ip), vehicle: other): 111 % of control and 112 % of control
- T/C (dose: 5.0 mg/kg/injection, schedule: Q01DX010 (ip), vehicle: other): 111 % of control

Compound: C=CC(CN1CC1)OC(C)=O (stereo not given)
- T/C [17]: 90 % of control and 95 % of control
- T/C [18]: 100 % of control and 118 % of control
- T/C (dose: 16.0 mg/kg/injection, schedule: Q01DX010 (ip), vehicle: saline): 95 % of control and 100 % of control

Compound: C[N+](C)(C)c1ncnc2nc[nH]c12
- T/C (dose: 15.0 mg/kg/injection, schedule: Q01DX010 (ip), vehicle: saline): 90 % of control
- T/C (dose: 30.0 mg/kg/injection, schedule: Q01DX010 (ip), vehicle: saline): 100 % of control
- T/C (dose: 60.0 mg/kg/injection, schedule: Q01DX010 (ip), vehicle: saline): 90 % of control and 100 % of control
- T/C (dose: 120.0 mg/kg/injection, schedule: Q01DX010 (ip), vehicle: saline): 105 % of control and 113 % of control

Compound: CSCS(=O)C[C@H](CO)NC(=O)/C=C/c1c(C)[nH]c(=O)[nH]c1=O (stereo not given in full)
- T/C (dose: 62.5 micrograms/kg/injection, schedule: Q01DX010 (ip), vehicle: saline): 109 % of control
- T/C (dose: 125.0 micrograms/kg/injection, schedule: Q01DX010 (ip), vehicle: saline): 100 % of control
- T/C (dose: 250.0 micrograms/kg/injection, schedule: Q01DX010 (ip), vehicle: saline): 100 % of control
- T/C (dose: 500.0 micrograms/kg/injection, schedule: Q01DX010 (ip), vehicle: saline): 90 % of control

Compound: CC[C@]1(O)C[C@H]2CN(CCc3c([nH]c4ccccc34)[C@@](C(=O)OC)(c3cc4c(cc3OC)N(C=O)[C@H]3[C@@](O)(C(=O)OC)[C@H](OC(C)=O)[C@]5(CC)C=CCN6CC[C@]43[C@@H]65)C2)C1
- T/C (dose: 0.03 mg/kg/injection, schedule: Q01DX010 (ip), vehicle: saline): 121 % of control and 123 % of control
- T/C (dose: 0.06 mg/kg/injection, schedule: Q01DX010 (ip), vehicle: saline): 157 % of control
- T/C (dose: 0.12 mg/kg/injection, schedule: Q01DX010 (ip), vehicle: saline): 161 % of control and 162 % of control
- T/C [15]: 90 % of control

Compound: CCCCn1cnc2c(=S)nc[nH]c21
- T/C [17]: 86 % of control
- T/C [18]: 86 % of control
- T/C [14]: 90 % of control

Compound: COS(C)(=O)=O
- T/C [3]: 90 % of control

Compound: O=c1cnn(C2OC(CO)C(O)C2O)c(=O)[nH]1 (stereo not given)
- T/C [16]: 100 % of control
- T/C (dose: 400.0 mg/kg/injection, schedule: Q01DX010 (ip), vehicle: saline): 100 % of control
- T/C (dose: 800.0 mg/kg/injection, schedule: Q01DX010 (ip), vehicle: saline): 91 % of control

Compound: Nc1nc(N)c2nc(CNc3ccc(C(=O)NC(CCC(=O)O)C(=O)O)cc3)cnc2n1 (stereo not given)
- T/C (dose: 0.03 mg/kg/injection, schedule: Q01DX010 (ip), vehicle: other): 90 % of control and 111 % of control
- T/C (dose: 0.05 mg/kg/injection, schedule: Q01DX010 (ip), vehicle: other): 100 % of control
- T/C (dose: 0.1 mg/kg/injection, schedule: Q01DX010 (ip), vehicle: other): 100 % of control
- T/C (dose: 0.2 mg/kg/injection, schedule: Q01DX010 (ip), vehicle: other): 110 % of control and 111 % of control

— PubChem BioAssay AID204 (DTP/NCI, 2004)
